# Results taken from patent US20060111305A1, “Metabolites of certain [1,4]diazepino[6,7,1-ij]quinoline derivatives and methods of preparation and use thereof” (Wyeth, priority 2004, published 2006).
# Read-outs that look alike come from different tables or passages of the source.
# Assay: Rat brain radioactivity content and metabolite profiles after single oral 5 mg/kg [14C]DCDQ
# Format: in vivo, Sprague-Dawley rats
# Experimental: At sacrifice, blood samples were collected by cardiac puncture into tubes containing EDTA as the anticoagulant and placing them on ice. Aliquots of 50 μL were removed for combustion and determination of radioactivity content. Plasma was immediately obtained from the remaining blood by centrifugation at 4° C. Brains were excised after perfusion with 50 mL of chilled sterile saline. Urine samples were collected on dry ice at intervals of 0-8 and 8-24 hour post-dosing. Feces were collected at intervals of 0-8 and 8-24 hr post-dosing at room temperature and were homogenized as described previously. The biological specimens and aliquots of the dosing solution at pre- and post-dose were stored at approximately −70° C. until analyzed.
# Brain and fecal samples were weighed and homogenized in water at volume-to-weight ratios of about 1:1 and 5:1, respectively. Blood aliquots (50 μL), brain homogenates (0.1 gram) and fecal homogenates (0.2 gram) were placed on Combusto-cones with Combusto-pads and combusted. A model 307 Tri-Carb Sample Oxidizer, equipped with an Oximate-80 Robotic Automatic Sampler (Perkin Elmer), was used for combustion. The liberated ^14CO2 was trapped with Carbo-Sorb E carbon dioxide absorber, mixed with PermaFluor® E+ liquid scintillation cocktail, and counted in a Tri-Carb Model 3100 TR/LL liquid scintillation counter (Perkin Elmer). The oxidation efficiency of the oxidizer was 98.2%.
# Brain homogenates were analyzed for metabolite profiles. Aliquots of 1 gram of brain homogenates were mixed with an equal volume of methanol, placed on ice for about 10 minutes and centrifuged. The supernatant was transferred to a clean tube. The residue was extracted three times with 1 mL methanol. The supernatants of each sample were combined, evaporated to about 0.5 mL, and centrifuged. Extraction efficiency was determined by analyzing aliquots of 10 μL of the supernatant for radioactivity. An aliquot (100-200 μL) of the supernatant was analyzed by HPLC with radioactivity flow detection for profiling. Samples were also analyzed by LC/MS to characterize the radioactive peaks.
# A Waters model 2690 HPLC system (Waters Corp., Milford, Mass.) with a built-in autosampler was used for analysis. Separations were accomplished on a Phenomenex Luna C18(2) column (150×2.0 mm, 5 μm) (Phenomenex, Torrance, Calif.). The sample chamber of the autosampler was maintained at 4° C., while the column was at ambient temperature of about 20° C. A variable wavelength UV detector set to monitor 250 nm and a Flo-One β Model A525 radioactivity detector described above were used for data acquisition. The HPLC mobile phase consisted of 10 mM ammonium acetate, pH 4.5 (A) and methanol (B), and was delivered at 0.2 mL/min. Chromatographic condition A was used for dose analysis, while condition B was used for analysis of urine and plasma, brain and fecal extracts.
smiles,measurement,setting,value
"c1cc2c3c(c1)[C@H]1CCC[C@H]1CN3CCNC2 [DCDQ, (9aR,12aS)-4,5,6,7,9,9a,10,11,12,12a-decahydro-cyclopenta[c][1,4]diazepine[6,7,1-ij]quinoline, reference compound]",Kp at 2 h,"Sprague-Dawley, rat, brain and plasma, oral, 5 mg/kg, male rats, 2 hr, read-out: Brain/Plasma Ratio, DCDQ",56.4 ± 11.5
same,Kp at 4 h,"Sprague-Dawley, rat, brain and plasma, oral, 5 mg/kg, male rats, 4 hr, read-out: Brain/Plasma Ratio, DCDQ",50.5 ± 8.88
same,concentration at 2 h,"Sprague-Dawley, rat, brain, oral, 5 mg/kg, female rats, 2 hr, mean ± S.D., N = 3, read-out: Brain concentration, DCDQ (estimated)",6080 ± 2170 ng/g
same,concentration at 8 h,"Sprague-Dawley, rat, brain, oral, 5 mg/kg, female rats, 8 hr, mean ± S.D., N = 3, read-out: Brain concentration, DCDQ (estimated)",2680 ± 660 ng/g
same,concentration at 2 h,"Sprague-Dawley, rat, brain, oral, 5 mg/kg, male rats, 2 hr, mean ± S.D., N = 3, read-out: Brain concentration, DCDQ (estimated)",4630 ± 1180 ng/g
same,concentration at 4 h,"Sprague-Dawley, rat, brain, oral, 5 mg/kg, male rats, 4 hr, mean ± S.D., N = 3, read-out: Brain concentration, DCDQ (estimated)",4470 ± 420 ng/g
same,concentration at 8 h,"Sprague-Dawley, rat, brain, oral, 5 mg/kg, male rats, 8 hr, mean ± S.D., N = 3, read-out: Brain concentration, DCDQ (estimated)",2930 ± 930 ng/g
same,Kp at 2 h,"Sprague-Dawley, rat, brain/plasma, oral, 5 mg/kg, female rats, 2 hr, read-out: Brain/Plasma Ratio, DCDQ",49.9 ± 14.3
same,Kp at 8 h,"Sprague-Dawley, rat, brain/plasma, oral, 5 mg/kg, female rats, 8 hr, read-out: Brain/Plasma Ratio, DCDQ",56.1 ± 17.8
same,Kp at 8 h,"Sprague-Dawley, rat, brain/plasma, oral, 5 mg/kg, male rats, 8 hr, read-out: Brain/Plasma Ratio, DCDQ",50.5 ± 11.4
same,Kp,"both sexes, Sprague-Dawley, rat, brain, oral, 5 mg/kg, independent of time or sex, 2 to 8 hour post-dose, read-out: average brain-to-plasma DCDQ ratio",49.9 to 56.1
same,% DCDQ of Brain Radioactivity,"female rats, 2 hr",95.2 ± 1.0%
same,% DCDQ of Brain Radioactivity,"female rats, 8 hr",94.1 ± 0.7%
same,% DCDQ of Brain Radioactivity,"male rats, 2 hr",90.4 ± 0.9%
same,% DCDQ of Brain Radioactivity,"male rats, 4 hr",90.4 ± 0.5%
same,% DCDQ of Brain Radioactivity,"male rats, 8 hr",90.0 ± 1.2%
c1cc2c3c(c1)[C@H]1CCC[C@H]1CN3CCNC2 [[^14C]DCDQ],"Brain concentration of radioactivity, Total","female rats, 2 hr, mean ± S.D., N = 3",6.38 ± 2.22 μg equivalents/g
same,"Brain concentration of radioactivity, Total","female rats, 8 hr, mean ± S.D., N = 3",2.85 ± 0.68 μg equivalents/g
same,"Brain concentration of radioactivity, Total","male rats, 2 hr, mean ± S.D., N = 3",5.12 ± 1.28 μg equivalents/g
same,"Brain concentration of radioactivity, Total","male rats, 4 hr, mean ± S.D., N = 3",4.94 ± 0.44 μg equivalents/g
same,"Brain concentration of radioactivity, Total","male rats, 8 hr, mean ± S.D., N = 3",3.25 ± 0.99 μg equivalents/g
same,Brain radioactivity concentration,"male rats, 24 hour post-dose",0.037 ± 0.002 µg equivalents/g tissue
same,"Brain concentration of radioactivity, Total","male rats, 24 hr, mean ± S.D., N = 3",0.04 ± 0.00 μg equivalents/g
